Results: patent publication US10087144B2, “Agents for use in the treatment of cardiovascular and inflammatory diseases structurally based on 4(1 H)-quinolone” (UCL Business PLC, priority 2015, dated 2018)
Where two headings read alike, the source gives them in different places.

System: rat mesenteric artery smooth muscle cells
Experiment: Ca2+ flux in response to Angiotensin II in isolated rat mesenteric artery smooth muscle cells (FLIPR)
Type: cell-based
Conditions: for inhibition at 1 µM / inhibition at 10 µM: Rattus norvegicus; for inhibition at 1 µM: read-out: % inhibition 1 μM; for inhibition at 10 µM: read-out: % inhibition 10 μM
Experimental: Mesenteric artery smooth muscle cells were isolated from male Sprague-Dawley rats (200-250 g). Mesenteric arteries were dissected, cleared of extraneous tissue and incubated in an enzyme solution containing collagenase type I (1 mg/ml), soybean trypsin inhibitor (0.25 mg/ml), bovine albumin (1 mg/ml), CaCl2 (0.2 mM), 100 U/ml penicillin (100 U/ml) and streptomycin (100 μg/ml) in a humidified incubator with 5% CO2 in air. The enzyme solution was replenished at 30 min intervals and cells were pelleted by centrifugation (200 g, 5 min) and differentially plated (×2) for 15 min in Dulbecco's Modified Eagle's Medium (DMEM) supplemented with penicillin (100 U/ml), streptomycin (100 μg/ml), L-Glutamine (2 mM) and 10% heat inactivated New Zealand foetal calf serum. Cells were passaged by trypsinisation and viability determined by trypan blue exclusion.
Measurements of Ca^2+ flux in response to Angiotensin II were conducted using a Fluorescent Imaging Plate Reader (FLIPR; Molecular Devices). Cells were plated at a density of 10,000 cells/well into black, clear-bottomed 96-well plates in DMEM supplemented with penicillin (100 U/ml), streptomycin (100 μg/ml), L-Glutamine (2 mM) and 10% heat inactivated New Zealand foetal calf serum. 24 hrs later the cells were incubated with Fluo-3-AM (4 μM) for 60 min at 37° C. Once dye-loaded, the cells were washed thoroughly with the proprietary assay buffer to remove any unincorporated dye. The cells were then incubated with varying concentrations of a number of representative NPR-C agonist molecules of the invention, C-type natriuretic peptide or vehicle (DMSO) and placed into the FLIPR. After 15 mins, Angiotensin II (100 nM) was automatically dispensed into each well and the fluorescence signal followed for 5 mins. Potency was determined by comparison of the peak fluorescence in each test well (run in triplicate) with that of the control (Angiotensin II alone). Background fluorescence (assay buffer only) was subtracted from all values.

[1] = 1 μM compound, inhibition of Angiotensin II (100 nM) Ca2+ flux peak fluorescence
[2] = 10 μM compound, inhibition of Angiotensin II (100 nM) Ca2+ flux peak fluorescence

| Compound | inhibition at 1 µM [1] [%] | inhibition at 10 µM [2] [%] | % inhibition 1 μM [1] [%] | % inhibition 10 μM [2] [%] | other results |
| --- | --- | --- | --- | --- | --- |
| O=C(O)c1cn(Cc2ccccc2)c2ccc(Br)cc2c1=O [Compound 27, 1-benzyl-6-bromo-4-oxo-1,4-dihydroquinoline-3-carboxylic acid] | 0 | 50 |  |  |  |
| O=C(O)c1c[nH]c2ccccc2c1=O [Compound 57] |  |  | 0 | 35 |  |
| C[C@H](NC(=O)c1cn(Cc2ccccc2)c2ccc(Br)cc2c1=O)C(=O)OC(C)(C)C [Compound 59, (S)-tert-butyl 2-(1-benzyl-6-bromo-4-oxo-1,4-dihydroquinoline-3-carboxamido)propanoate] | 20 | 90 |  |  |  |
| CC(C)C[C@H](NC(=O)c1cn(Cc2ccccc2)c2ccc(Br)cc2c1=O)C(=O)OC(C)(C)C [Compound 60, (S)-tert-butyl 2-(1-benzyl-6-bromo-4-oxo-1,4-dihydroquinoline-3-carboxamido)-4-methylpentanoate] | 0 | 80 |  |  |  |
| CC(C)(C)OC(=O)[C@H](Cc1ccccc1)NC(=O)c1cn(Cc2ccccc2)c2ccc(Br)cc2c1=O [Compound 61, (S)-tert-butyl 2-(1-benzyl-6-bromo-4-oxo-1,4-dihydroquinoline-3-carboxamido)-3-phenylpropanoate] | 27 | 100 |  |  |  |
| CC(C)(C)OC(=O)CNC(=O)c1cn(Cc2ccccc2)c2ccc(Br)cc2c1=O [Compound 62] |  |  | 0 | 50 |  |
| CC(C)[C@H](NC(=O)c1cn(Cc2ccccc2)c2ccc(Br)cc2c1=O)C(=O)OC(C)(C)C [Compound 63, (S)-tert-butyl 2-(1-benzyl-6-bromo-4-oxo-1,4-dihydroquinoline-3-carboxamido)-3-methylbutanoate] | 58 | 100 |  |  |  |
| CCOC(=O)c1c[nH]c2ccccc2c1=O [Compound 84, ethyl 4-oxo-1,4-dihydroquinoline-3-carboxylate] |  |  |  |  | inhibition at 1 µM: 40%; inhibition at 10 µM: 45% |
| CCOC(=O)c1cn(Cc2ccccc2)c2ccccc2c1=O [Compound 85, ethyl 1-benzyl-4-oxo-1,4-dihydroquinoline-3-carboxylate] | 0 | 97 |  |  |  |
| O=C(O)c1cn(Cc2ccccc2)c2ccccc2c1=O [Compound 86, 1-benzyl-4-oxo-1,4-dihydroquinoline-3-carboxylic acid] | 0 | 45 |  |  |  |
| CC(C)(C)OC(=O)CNC(=O)c1cn(Cc2ccccc2)c2ccccc2c1=O [Compound 87, tert-butyl 2-(1-benzyl-4-oxo-1,4-dihydroquinoline-3-carboxamido)acetate] | 0 | 67 |  |  |  |
| CC(C)[C@H](NC(=O)c1cn(Cc2ccccc2)c2ccccc2c1=O)C(=O)OC(C)(C)C [Compound 88, (S)-tert-butyl 2-(1-benzyl-4-oxo-1,4-dihydroquinoline-3-carboxamido)-3-methylbutanoate] | 12 | 55 |  |  |  |
| CC(C)c1cccc2c(=O)c(C(=O)O)c[nH]c12 [Compound 103] |  |  | 0 | 65 |  |
| COc1ccc2[nH]cc(C(=O)O)c(=O)c2c1 [Compound 104] |  |  | 0 | 69 |  |
| CC(=O)c1ccc2[nH]cc(C(=O)O)c(=O)c2c1 [Compound 105] |  |  | 80 | 100 |  |
| O=C(O)c1ccc2c(=O)c(C(=O)O)c[nH]c2c1 [Compound 106] |  |  | 90 | 90 |  |
| Cc1cccc2c(=O)c(C(=O)O)c[nH]c12 [Compound 107] |  |  | 15 | 100 |  |
| CN(C)c1ccc2[nH]cc(C(=O)O)c(=O)c2c1 [Compound 108] |  |  | 0 | 90 |  |
| O=C(O)c1c[nH]c2c(C(=O)O)cccc2c1=O [Compound 109] |  |  | 18 | 100 |  |
| O=C(O)c1c[nH]c2cc(C(F)(F)F)ccc2c1=O [Compound 110] |  |  | 70 | 100 |  |
| O=C(O)c1ccc2[nH]cc(C(=O)O)c(=O)c2c1 [Compound 111] |  |  | 100 | 100 |  |
| Cc1ccc2[nH]cc(C(=O)O)c(=O)c2c1 [Compound 112] |  |  | 100 | 100 |  |
| O=C(O)c1c[nH]c2ccc(Br)cc2c1=O [Compound 113] |  |  | 12 | 100 |  |
| O=C(O)c1c[nH]c2ccc(F)cc2c1=O [Compound 114] |  |  | 100 | 100 |  |
| O=C(O)c1cn(C2CC2)c2cc(N3CCNCC3)c(F)cc2c1=O [Compound 134] |  |  | 55 | 80 |  |
| CC1COc2c(N3CCN(C)CC3)c(F)cc3c(=O)c(C(=O)O)cn1c23 (stereo not drawn) [Compound 136] |  |  | 15 | 20 |  |
| CC1COc2c(N3CCN(C)CC3)c(F)cc3c(=O)c(C(=O)O)cn1c23 (stereo not drawn) [Compound 138] |  |  | 11 | 40 |  |
| C[C@@H]1CN(c2c(F)c(N)c3c(=O)c(C(=O)O)cn(C4CC4)c3c2F)C[C@H](C)N1 [Compound 141] |  |  | 0 | 28 |  |
| CC1CCc2c(N3CCC(O)CC3)c(F)c(N)c3c(=O)c(C(=O)O)cn1c23 (stereo not drawn) [Compound 142] |  |  | 18 | 75 |  |
| CN1CCN(c2cc3c(cc2F)c(=O)c(C(=O)O)cn3-c2ccc(F)cc2)CC1 [Compound 144] |  |  | 23 | 40 |  |
